In US20240398738A1, “MANIPULATION OF THE RETINOIC ACID SIGNALING PATHWAY” (THE REGENTS OF THE UNIVERSITY OF CALIFORNIA, priority 2017, published 2024):

Columns and labels:
[1] = system: RGCs in WT retina; assay: YO-PRO-1 loading assay (dye permeability of RGCs) in WT retina after intravitreal injection; type: in vivo, mouse; conditions: for percentage of YO-PRO-1 positive cells: intravitreal injection 3-7 days before, ATRA 100 nM, liarozole 100 μM, retinaldehyde 1 μM, DEAB 20 μM; for Yo-Pro-1 labeling of WT-RGCs, result in words: WT retina, substance injected intravitreally alone
Procedure: (§1) Intravitreal Injections. Before injection, mice were anesthetized with isoflurane (2%) and their pupils were dilated with tropicamide (1%) and phenylephrine (2.5%). Proparacaine (0.5%) was used as a topical analgesic. Genteal was applied under a glass coverslip to keep the cornea lubricated. An incision was made through the sclera below the ora serrata with a 30G needle and ˜1 μl of solution was injected into the vitreous with a blunt-ended 33G Hamilton syringe. After injection, the antibiotic tobramycin (0.3%) was applied to the eye. Final drug concentrations after intravitreal injection were: all-trans retinoic acid (ATRA, 100 nM), liarozole (100 μM), diethylaminobenzaldehyde (DEAB, 20 μM), citral (50 μM), BMS-493 (500 nM), and retinaldehyde (1 μM). The above values correspond to the final concentration in the eye after injecting 1 μl of drug accounting for a 5-fold dilution. An injection of PBS including 1% DMSO was used as vehicle control.
(§2) Yo-PRO-1 Loading Assay. After dissection, retinas were cut into thirds and mounted on a windowed nitrocellulose filter paper. Retinas were treated with 200 nM Yo-PRO-1 (Life Technologies) in oxygenated ACSF for 15 minutes, followed by treatment and then treated with nuclear ID (Enzo Life Sciences) at a 1:500 dilution for 3 minutes. ACSF was perfused continuously at 3 ml/min for a period of 5 minutes to wash away excess dye. In experiments employing TNP-ATP (200 μm), the retinas was pretreated with the compound for ten minutes before beginning YO-PRO-1 treatment.
(§3) Image analysis. All image analysis was performed using ImageJ or Fiji software (55,56). Yo-PRO-1 loading assay, ROIs were manually selected using the nuclear-ID channel based upon morphological characteristics. This was performed after computationally flattening the retina by performing a maximum Z projection onto a single plane. Following this, a background subtraction was performed with a rolling radius of 50 pixels. Cells identified as vascular endothelial cells or pericytes were not included in the analysis. This was confirmed using transillumination. A threshold for YO-PRO-1 loading was established by measuring the level of autofluorescence of untreated retinas in each channel and finding a baseline value with +2SD being the threshold for a YO-PRO-1 positive cell. Nuclear-ID was used to count the total number of cells within a field of view. The percentage of cells above the threshold was then calculated for comparison. For analysis of RARE double reporter virus assay, ROIs were manually selected on the RFP channel first and then superimposed to the GFP channel. Single cell values for both RFP and GFP were filtered by using a RFP minimum threshold established in naive unlabeled retinas.
(§4) Injections. Intravitreal injections: Adult mice and rats were intravitreally injected with drugs or viruses. Before injection, animals were anesthetized with isoflurane (2%) and their pupils were dilated with tropicamide (1%) and phenylephrine (2.5%). Proparacaine (0.5%) was used as a topical analgesic. Genteal was applied under a glass coverslip to keep the cornea lubricated. An incision was made through the sclera below the ora serrata with a 30G needle. Solutions were injected into the vitreous with a blunt-ended 33G Hamilton syringe. After injection, the antibiotic tobramycin (0.3%) was applied to the eye. Final drug concentrations (after 5-fold dilution in the vitreous) were: 100 nM all-trans retinoic acid (ATRA), 100 μM liarozole (24), 20 μM diethylaminobenzaldehyde (DEAB) (28,93), 50 μM citral, 500 nM BMS 493 (85), 1 μM retinaldehyde, and vehicle comprising of 1× phosphate buffered saline (PBS) containing 1% dimethyl sulfoxide (DMSO). Intravitreal injections were performed using AAV2 serotype only. WT and rd1 mice were injected with the RAR-reporter virus or the RARDN virus, at age 1-1.5 month-old. WT and s334ter rats were injected with the RAR-reporter virus at age 3-4 month-old. Final volume of injections was 1-1.5 μL for mice and 5 μL for rats. […]

[2] = system: RGCs in WT retina; assay: MEA recording of photoswitch (QAQ, BENAQ) photosensitization in WT retina; type: in vivo, mouse
Procedure: as §1
(§5) Multi Electrode Array Recordings. For extracellular recordings, a flat-mounted retina was placed ganglion cell layer down onto a 60-electrode Multi-Electrode Array (MEA 1060-2-BC, Multi-Channel Systems). After mounting the retina, photoswitches were applied for 30 min, followed by a 15 min wash. BENAQ was applied at a concentration of 100 μM and QAQ at 300 μM. A solution containing a mixture of neurotransmitter receptor blockers isolated RGCs from synaptic inputs: (in μM) 10 AP4, 40 DNQX, 30 AP5, 10 SR-95531, 50 TPMPA, 10 strychnine, and 50 tubocurarine. Extracellular spikes were high-pass filtered at 200 Hz and digitized at 20 kHz and were counted when exceeding 4 SD from the mean background voltage signal. Typically, each electrode recorded spikes from one to three individual RGCs. Principal component analysis of the spike waveforms was used for sorting spikes generated by individual cells (Offline Sorter, Plexon). Stimulation light was generated from a mercury arc lamp. Unfiltered broad spectrum light was used for BENAQ-treated retinas. Narrow band optical filters (Chroma) were used to deliver alternating intervals of 380 nm and 500 nm for stimulation of QAQ-treated as described previously (5,12). The Photoswitch Index (5) (PI) was established for individual retinas in light/darkness for treatment with BENAQ or in 380 nm/500 nm light for treatment with QAQ (11,12).
Injections. Intravitreal injections: Adult mice and rats were intravitreally injected with drugs or viruses. Before injection, animals were anesthetized with isoflurane (2%) and their pupils were dilated with tropicamide (1%) and phenylephrine (2.5%). Proparacaine (0.5%) was used as a topical analgesic. Genteal was applied under a glass coverslip to keep the cornea lubricated. An incision was made through the sclera below the ora serrata with a 30G needle. Solutions were injected into the vitreous with a blunt-ended 33G Hamilton syringe. After injection, the antibiotic tobramycin (0.3%) was applied to the eye. Final drug concentrations (after 5-fold dilution in the vitreous) were: 100 nM all-trans retinoic acid (ATRA), 100 μM liarozole (24), 20 μM diethylaminobenzaldehyde (DEAB) (28,93), 50 μM citral, 500 nM BMS 493 (85), 1 μM retinaldehyde, and vehicle comprising of 1× phosphate buffered saline (PBS) containing 1% dimethyl sulfoxide (DMSO). Intravitreal injections were performed using AAV2 serotype only. WT and rd1 mice were injected with the RAR-reporter virus or the RARDN virus, at age 1-1.5 month-old. WT and s334ter rats were injected with the RAR-reporter virus at age 3-4 month-old. Final volume of injections was 1-1.5 μL for mice and 5 μL for rats.
Multi Electrode Array Recordings. Flat-mounted retina was placed ganglion cell layer down onto a 60-electrode Multi-Electrode Array (MEA 1060-2-BC, Multi-Channel Systems). After mounting the retina was left to dark adapt for 20 minutes under constant perfusion with oxygenated saline at 34° C. 300 μM QAQ at was applied for 30 min, followed by a 5 min wash. […]

[3] = system: RGCs in rd1 retina; assay: YO-PRO-1 loading assay (dye permeability of RGCs) in rd1 retina after intravitreal injection; type: in vivo, mouse; conditions: for Yo-Pro-1 labeling of rd1-RGCs, result in words: rd1, intravitreal injection, compared to vehicle-injected; for percentage of YO-PRO-1 positive cells (fraction of RGC nuclei labeled): rd1 mice, intravitreal injection, measured 3-7 days after, BMS-493 500 nM, DEAB 20 uM, citral 50 uM, mean±SEM
Procedure: as §1, §2, §3, §4

[4] = system: RGCs in rd1 retina; assay: MEA recording of photoswitch (QAQ, BENAQ) photosensitization in rd1 retina; type: in vivo, mouse; conditions: rd1 retina without BMS-493, mean±SEM
Procedure: as §1, §5
as §4, with “month-old.” for “month-old. WT and s334ter rats were injected with the RAR-reporter virus at age 3-4 month-old. Final volume of injections was 1-1.5 μL for mice and 5 μL for rats.”

[5] = system: gap junctions; conditions: micromolar concentrations are required; cited from earlier work

Clc1cccc(C(c2ccc3[nH]cnc3c2)n2ccnc2)c1 (stereo not shown) [liarozole]
percentage of YO-PRO-1 positive cells ([1]; WT mice, mean±SEM): 8.66±1.36% | Yo-Pro-1 labeling of WT-RGCs, result in words [1]: had no effect by itself | QAQ photosensitization of WT retina, in words ([2]; WT retina, 3-7 days after intravitreal injection): Neither ATRA nor liarozole alone enabled significant QAQ photosensitization | Photoswitch Index (PI) with QAQ ([2]; WT retina, 3-7 days after intravitreal injection, QAQ 300 μM, mean±SEM): 0.27±0.13

CCN(CC)c1ccc(C=O)cc1 [DEAB, diethylaminobenzaldehyde]
Yo-Pro-1 labeling of rd1-RGCs, result in words [3]: significantly reduced the percentage of rd1-RGCs labeled with Yo-Pro-1 | percentage of YO-PRO-1 positive cells (fraction of RGC nuclei labeled) [3]: 19.77±2.32% | percentage of YO-PRO-1 positive cells, retinaldehyde co-injected with DEAB ([1]; WT mice, co-injection with retinaldehyde, 3-7 days before imaging, mean±SEM): 7.65±1.34% | percentage of YO-PRO-1 positive cells ([1]; WT mice, mean±SEM): 7.47±1.21% | Yo-Pro-1 labeling of WT-RGCs, result in words [1]: caused no change in Yo-Pro-1 labeling

CC(C)=CCCC(C)=CC=O [citral]
Yo-Pro-1 labeling of rd1-RGCs, result in words [3]: significantly reduced the percentage of rd1-RGCs labeled with Yo-Pro-1 | percentage of YO-PRO-1 positive cells (fraction of RGC nuclei labeled) [3]: 9.87±2.39%

CC1=C(/C=C/C(C)=C/C=C/C(C)=C/C=O)C(C)(C)CCC1 [Retinaldehyde, retinaldehyde]
percentage of YO-PRO-1 positive cells ([1]; WT mice, mean±SEM): 14.6±2.29% | Yo-Pro-1 labeling of WT-RGCs, result in words [1]: significantly increasing Yo-Pro-1 labeling above baseline

CCN(Cc1ccccc1)c1ccc(/N=N/c2ccc(NC(=O)C[N+](CC)(CC)CC)cc2)cc1 [BENAQ, benzylethylamino-azobenzene-quaternary ammonium]
Photoswitch Index (PI) of BENAQ ([4]; white light/darkness): 0.56±0.03

CC[N+](CC)(CC)CC(=O)Nc1ccc(N=Nc2ccc(NC(=O)C[N+](CC)(CC)CC)cc2)cc1 [QAQ, quaternary ammonium-azobenzene-quaternary ammonium]
Photoswitch Index (PI) of QAQ ([4]; QAQ 300 μM, 380/500 nm): 0.63±0.12

TNP-ATP
percentage of YO-PRO-1 positive cells, ATRA-induced labeling with blocker ([1]; WT mice injected with ATRA, TNP-ATP bath-applied ex vivo or BMS-493 co-injected, mean±SEM): 0.39±0.31% | Photoswitch Index (PI) with QAQ, ATRA plus liarozole with TNP-ATP ([2]; WT retina injected with ATRA plus liarozole, TNP-ATP bath-loaded, mean±SEM): 0.19±0.14 | effect on QAQ photosensitization induced by ATRA plus liarozole, in words ([2]; WT retina, TNP-ATP bath-loaded): blocked by TNP-ATP

Cc1ccc(Cl)c(Nc2ccccc2C(=O)O)c1Cl [Meclofenamic acid]
effect on RGC light responses [5]: augments RGC light responses by reducing hyperactivity
